Earlier results as cited in patent US20130122119A1, “PHYLLANTHUS AMARUS COMPOSITIONS AND METHOD OF EXTRACTING SAME” (NATREON, INC., priority 2011, published 2013).

Experiments:
TNF-α release = conditions: read-out: IC50 of TNF-α release inhibition
mouse skin tumors = conditions: week 20, treatment prior to okadaic acid
[1] = tested on: hepatitis B surface antigen (HBsAg) secretion; conditions: non-cytotoxic concentration of 200 μg/ml
[2] = tested on: hepatitis B e-antigen (HBeAg) secretion; conditions: non-cytotoxic concentration of 200 μg/ml
[3] = geraniin isolated from Phyllanthus sellowianus

Compound | IC50 (TNF-α release) [µM] | average numbers of tumor per mouse (mouse skin tumors; 3.8 without treatment) | percentage of tumor-bearing mice (mouse skin tumors; 80.0% without treatment) [%] | inhibition of HBsAg secretion [1] | inhibition of HBeAg secretion [2] [%] | analgesic potency at the ID50 level (micromol/kg) relative to aspirin and acetaminophen [3]
O=C1OC2C3COC(=O)c4cc(O)c(O)c(O)c4-c4c(cc(O)c(O)c4O)C(=O)OC2C(OC(=O)c2cc(O)c(O)c4c2C2C1=CC(=O)C(O)(O4)C2(O)O)C(OC(=O)c1cc(O)c(O)c(O)c1)O3 [Geraniin, beta-D-Glucopyranose, cyclic 2-7:4-5-(3,6-dihydro-2,9,10,11,11-pentahydroxy-3-oxo-2,6-methano-2H-1-benzoxocin-5,7-dicarboxylate) cyclic 3,6-(4,4′,5,5′,6,6′-hexahydroxy(1,1′-biphenyl)-2,2′-dicarboxylate) 1-(3,4,5-trihydroxybenzoate)] | 43 | 1.1 | 40.0 | more than 85.8% | > 63.7 | about six- to seven-fold more potent
O=C(O[C@@H]1O[C@@H]2COC(=O)c3cc(O)c(O)c(O)c3-c3c(cc(O)c(O)c3O)C(=O)O[C@H]([C@H]1O)[C@@H]2O)c1cc(O)c(O)c(O)c1 [Corilagin, beta-1-O-galloyl-3,6-(R)-hexahydroxydiphenoyl-D-glucose] | 76 |  |  |  |  | 
(−)-epigallocatechin gallate | 26 |  |  |  |  | 
